Patent US9670227B2, “Thienopyrimidine derivatives, a process for their preparation and pharmaceutical compositions containing them” (LES LABORATOIRES SERVIER, priority 2013, dated 2017)

The molecules below were run against Mcl-1 protein (UniProtKB primary accession number: Q07820) (Homo sapiens, UniProt Q07820) (assay: Inhibition of Mcl-1 by fluorescence polarisation, Method 1). Settings: fluorescence polarisation; Method 1, or Method 2; read-out: IC50 (M) Mcl-1 FP.
Chain of Mcl-1 protein (Q07820 whole entry): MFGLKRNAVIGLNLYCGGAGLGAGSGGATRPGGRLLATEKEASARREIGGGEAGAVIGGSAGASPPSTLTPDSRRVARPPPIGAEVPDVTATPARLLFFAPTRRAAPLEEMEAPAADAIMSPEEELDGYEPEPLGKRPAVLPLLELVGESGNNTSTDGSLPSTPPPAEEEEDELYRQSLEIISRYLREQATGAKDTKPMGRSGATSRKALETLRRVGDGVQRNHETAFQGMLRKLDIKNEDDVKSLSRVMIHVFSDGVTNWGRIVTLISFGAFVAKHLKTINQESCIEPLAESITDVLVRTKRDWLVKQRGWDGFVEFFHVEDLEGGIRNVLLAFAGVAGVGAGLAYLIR
Format: binding
Summary of the method: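 Fluorescence polarisation competition with an 11-point compound dilution series (final DMSO 5%). Mcl-1 protein at 5 nM and fluorescein-labelled ligand at 1 nM (final) in 10 mM HEPES, 150 mM NaCl, 0.05% Tween 20, pH 7.4.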
`Cc1c(-c2c(C#N)sc3ncnc(OC(Cc4ccccc4)C(=O)O)c23)ccc(OCCN2CCN(C)CC2)c1Cl` [Example 521, (2R)-2-[((5Sa)-5-{3-chloro-2-methyl-4-[2-(4-methylpiperazin-1-yl)ethoxy]phenyl}-6-cyanothieno[2,3-d]pyrimidin-4-yl)oxy]-3-phenylpropanoic acid] gave an IC50 of 2.4e-07 M. Work on `CC(=O)c1sc2ncnc(OC(Cc3ccccc3)C(=O)O)c2c1-c1ccc(OCCN2CCN(C)CC2)c(Cl)c1C` [Example 522, (2R)-2-[(6-acetyl-(5Sa)-5-{3-chloro-2-methyl-4-[2-(4-methylpiperazin-1-yl)ethoxy]phenyl}thieno[2,3-d]pyrimidin-4-yl)oxy]-3-phenylpropanoic acid] yielded an IC50 of 7.5e-08 M. `COc1ccccc1CC(Oc1ncnc2sc(-c3ccc(F)c(F)c3F)c(-c3ccc(OCCN4CCN(C)CC4)c(Cl)c3C)c12)C(=O)O` [Example 537, (2R)-2-{[(5Sa)-5-{3-chloro-2-methyl-4-[2-(4-methylpiperazin-1-yl)ethoxy]phenyl}-6-(2,3,4-trifluorophenyl)thieno[2,3-d]pyrimidin-4-yl]oxy}-3-(2-methoxyphenyl)propanoic acid] was tested, and the IC50 was 4.3e-08 M. `COc1ccccc1CC(Oc1ncnc2sc(-c3ccc(C(OC)OC)o3)c(-c3ccc(OCCN4CCN(C)CC4)c(Cl)c3C)c12)C(=O)O` [Example 542, (2R)-2-[((5Sa)-5-{3-chloro-2-methyl-4-[2-(4-methylpiperazin-1-yl)ethoxy]phenyl}-6-[5-(dimethoxymethyl)furan-2-yl]thieno[2,3-d]pyrimidin-4-yl)oxy]-3-(2-methoxyphenyl)propanoic acid] showed an IC50 of 4.3e-07 M. Molecule `COc1ccccc1CC(Oc1ncnc2sc(-c3cccc(Cl)c3)c(-c3ccc(OCCN4CCN(C)CC4)c(Cl)c3C)c12)C(=O)O` [Example 550, (2R)-2-{[(5Sa)-5-{3-chloro-2-methyl-4-[2-(4-methylpiperazin-1-yl)ethoxy]phenyl}-6-(3-chlorophenyl)thieno[2,3-d]pyrimidin-4-yl]oxy}-3-(2-methoxyphenyl)propanoic acid] has an IC50 of 4.8e-08 M. In the case of `COc1ccccc1CC(Oc1ncnc2sc(-c3cccc(F)c3)c(-c3ccc(OCCN4CCN(C)CC4)c(Cl)c3C)c12)C(=O)O` [Example 551, (2R)-2-{[(5Sa)-5-{3-chloro-2-methyl-4-[2-(4-methylpiperazin-1-yl)ethoxy]phenyl}-6-(3-fluorophenyl)thieno[2,3-d]pyrimidin-4-yl]oxy}-3-(2-methoxyphenyl)propanoic acid], the IC50 is reported as 2.8e-08 M. Molecule `COc1ccccc1CC(Oc1ncnc2sc(-c3cccc(OC(F)(F)F)c3)c(-c3ccc(OCCN4CCN(C)CC4)c(Cl)c3C)c12)C(=O)O` [Example 555, (2R)-2-[((5Sa)-5-{3-chloro-2-methyl-4-[2-(4-methylpiperazin-1-yl)ethoxy]phenyl}-6-[3-(trifluoromethoxy)phenyl]thieno[2,3-d]pyrimidin-4-yl)oxy]-3-(2-methoxyphenyl)propanoic acid] has an IC50 of 3.9e-07 M. For `COc1ccccc1CC(Oc1ncnc2sc(-c3cccc(Oc4ccc(F)cc4)c3)c(-c3ccc(OCCN4CCN(C)CC4)c(Cl)c3C)c12)C(=O)O` [Example 556, (2R)-2-[((5Sa)-5-{3-chloro-2-methyl-4-[2-(4-methylpiperazin-1-yl)ethoxy]phenyl}-6-[3-(4-fluorophenoxy)phenyl]thieno[2,3-d]pyrimidin-4-yl)oxy]-3-(2-methoxyphenyl)propanoic acid], the IC50 was 1.2e-08 M. Molecule `COc1ccccc1CC(Oc1ncnc2sc(-c3cccc(OC(F)(F)F)c3F)c(-c3ccc(OCCN4CCN(C)CC4)c(Cl)c3C)c12)C(=O)O` [Example 562, (2R)-2-[((5Sa)-5-{3-chloro-2-methyl-4-[2-(4-methylpiperazin-1-yl)ethoxy]phenyl}-6-[2-fluoro-3-(trifluoromethoxy)phenyl]thieno[2,3-d]pyrimidin-4-yl)oxy]-3-(2-methoxyphenyl)propanoic acid] has an IC50 of 5.1e-07 M. `COc1ccccc1CC(Oc1ncnc2sc(-c3ccccc3F)c(-c3ccc(OCCN4CCN(C)CC4)c(Cl)c3C)c12)C(=O)O` [Example 566, (2R)-2-{[(5Sa)-5-{3-chloro-2-methyl-4-[2-(4-methylpiperazin-1-yl)ethoxy]phenyl}-6-(2-fluorophenyl)thieno[2,3-d]pyrimidin-4-yl]oxy}-3-(2-methoxyphenyl)propanoic acid] gave an IC50 of 3e-08 M. `COc1ccccc1CC(Oc1ncnc2sc(-c3cccnc3)c(-c3ccc(OCCN4CCN(C)CC4)c(Cl)c3C)c12)C(=O)O` [Example 567, (2R)-2-{[(5Sa)-5-{3-chloro-2-methyl-4-[2-(4-methylpiperazin-1-yl)ethoxy]phenyl}-6-(pyridin-3-yl)thieno[2,3-d]pyrimidin-4-yl]oxy}-3-(2-methoxyphenyl)propanoic acid] was tested, and the IC50 was 2.1e-08 M. `CC#Cc1sc2ncnc(OC(Cc3ccccc3OC)C(=O)O)c2c1-c1ccc(OCCN2CCN(C)CC2)c(Cl)c1C` [Example 572, (2R)-2-{[(5Sa)-5-{3-chloro-2-methyl-4-[2-(4-methylpiperazin-1-yl)ethoxy]phenyl}-6-(prop-1-yn-1-yl)thieno[2,3-d]pyrimidin-4-yl]oxy}-3-(2-methoxyphenyl)propanoic acid] was tested, and the IC50 was 1.9e-08 M. Work on `COc1ccccc1CC(Oc1ncnc2sc(-c3ccc(Br)o3)c(-c3ccc(OCCN4CCN(C)CC4)c(Cl)c3C)c12)C(=O)O` [Example 577, (2R)-2-{[6-(5-bromofuran-2-yl)-(5Sa)-5-{3-chloro-2-methyl-4-[2-(4-methylpiperazin-1-yl)ethoxy]phenyl}thieno[2,3-d]pyrimidin-4-yl]oxy}-3-(2-methoxyphenyl)propanoic acid] yielded an IC50 of 7.6e-09 M. Work on `COC(=N)c1ccc(-c2sc3ncnc(OC(Cc4ccccc4OC)C(=O)O)c3c2-c2ccc(OCCN3CCN(C)CC3)c(Cl)c2C)o1` [Example 580, (2R)-2-[((5Sa)-5-{3-chloro-2-methyl-4-[2-(4-methylpiperazin-1-yl)ethoxy]phenyl}-6-[5-(methoxycarbonoimidoyl)furan-2-yl]thieno[2,3-d]pyrimidin-4-yl)oxy]-3-(2-methoxyphenyl)propanoic acid] yielded an IC50 of 3.7e-08 M. Molecule `COc1ccccc1CC(Oc1ncnc2sc(-c3ccc(C(N)=O)o3)c(-c3ccc(OCCN4CCN(C)CC4)c(Cl)c3C)c12)C(=O)O` [Example 581, (2R)-2-{[6-(5-carbamoylfuran-2-yl)-(5Sa)-5-{3-chloro-2-methyl-4-[2-(4-methylpiperazin-1-yl)ethoxy]phenyl}thieno[2,3-d]pyrimidin-4-yl]oxy}-3-(2-methoxyphenyl)propanoic acid] has an IC50 of 4.2e-07 M.

Same assay, conditions: partial inhibitors; @ 10 uM test compound; 10 µM
With `COc1ccccc1CC(Oc1ncnc2sc(C(=O)N(C)C)c(-c3ccc(OCCN4CCN(C)CC4)c(Cl)c3C)c12)C(=O)O` [Example 574, (2R)-2-{[(5Ra)-5-{3-chloro-2-methyl-4-[2-(4-methylpiperazin-1-yl)ethoxy]phenyl}-6-(dimethylcarbamoyl)thieno[2,3-d]pyrimidin-4-yl]oxy}-3-(2-methoxyphenyl)propanoic acid] the “percentage fluorescence polarisation inhibition, Mcl-1 FP” value was 24.3% @ 10 uM. `COc1ccccc1CC(Oc1ncnc2sc(C(=O)N(C)C)c(-c3ccc(OCCN4CCN(C)CC4)c(Cl)c3C)c12)C(=O)O` [Example 575, (2R)-2-{[(5Sa)-5-{3-chloro-2-methyl-4-[2-(4-methylpiperazin-1-yl)ethoxy]phenyl}-6-(dimethylcarbamoyl)thieno[2,3-d]pyrimidin-4-yl]oxy}-3-(2-methoxyphenyl)propanoic acid] was tested, and the “percentage fluorescence polarisation inhibition, Mcl-1 FP” value was 46.8% @ 10 uM.
